From US11584744B2 (UNIVERSITY OF WASHINGTON, priority 2017, dated 2023)
Marks after values point to notes of the source that are not given here.

Experiments:
Cryptosporidium parvum = test: C. parvum parasite burden model, gamma-IFN knockout mice, bioluminescence readout; type: in vivo
Method: FIG. 4 illustrates efficacy of MetRS inhibitors in a parasite burden model of Cryptosporidium parvum infection. About 1,000-fold reduction of parasite burden was observed after treatment by 2093.
Several compounds of the disclosure were also evaluated in vivo in C. parvum infection model and in acute T. cruzi infection model. Immunosuppressed mice (NOD SCID Gamma) with Cryptosporidium infection were treated for 5 days with test compounds. Cryptosporidium oocysts were quantified in stool by PCR. […] In FIG. 4, gamma-IFN knockout mice were used and, similarly, treated for 5 days with the test compound 2093. […] With respect to the T. cruzi, an efficacy model was employed in which the infection was monitored using bioluminescent T. cruz. With vehicle treatment, all mice died by day 14 post-infection.

[1] = Data from Drugbank; cited from earlier work

Row | Compound | reduction of parasite burden (Cryptosporidium parvum; FIG. 4) | drop in fecal parasites (Cryptosporidium parvum; gamma-IFN knockout mice, treated 5 days, bioluminescence) [log] | % binding to human plasma [1]
1 | CCn1c(Cc2ccc(OC)cc2Cl)cn(Cc2nc3nc(Cl)ccc3[nH]2)c1=O [Compound 2093, 1-({5-chloro-1H-imidazo[4,5-b]pyridin-2-yl}methyl)-4-[(2-chloro-4-methoxyphenyl)methyl]-3-ethyl-2,3-dihydro-1H-imidazol-2-one] | About 1,000 fold | > 4 | 
2 | CC(=O)NC[C@H]1CN(c2ccc(N3CCOCC3)c(F)c2)C(=O)O1 [LNZ, linezolid] |  |  | 31* %
